Source: PMC7970697, “Inhibition and Induction by Poziotinib of Different Rat Cytochrome P450 Enzymes In Vivo and in an In Vitro Cocktail Method” (Frontiers in Pharmacology, 2021)

Assay: in vivo
Conditions: for half-life: t1/2z; for CL/F: CLz/F; for Vd/F: Vz/F; for AUC(0–t) of treated group as fold of control group value / CLz/F of treated group as fold of control group value: poziotinib 5 mg/kg 7 days vs probes only (Discussion); for MRT last: MRT(0–t); for MRT inf: MRT(0–∞)
Description: Samples were analyzed by a UPLC-MS/MS system equipped with a triple quadrupole mass spectrometer (Waters Corp., Milford, MA, United States) and Acquity UPLC BEH C18 column (1.7 μm, 2.1 × 50 mm) at 40°C. The mobile phase consisted of acetonitrile (A) and 0.1% formic acid (B) with a linear gradient elution at 0.4 ml/min for 3 min.
Twelve male Sprague-Dawley rats (230 ± 20 g) were randomly divided into treated and control groups, with 6 in each group. […] The supernatant was mixed with 200 μL of acetonitrile and 20 μL of 0.5 μg/ml diazepam (IS), vortexed for 30 s, centrifuged at 13,000 rpm for 5 min, and the supernatant was injected into the UPLC-MS/MS system for analysis.
Pharmacokinetic parameters were calculated using DAS software (Version 3.2.8). SPSS software (version 16.0; SPSS Inc., Chicago, IL, United States) was used to analyze the significance of differences between the main pharmacokinetic parameters. p < 0.05 was considered statistically significant. GraphPad (version 8.0; GraphPad Software Inc., San Diego, CA, United States) was used to calculate IC50 and plot the plasma concentration-time curves and inhibition plots (type of inhibition, time- and concentration-dependence).

[1] = male, Sprague-Dawley, rat, in vivo, po
[2] = male, Sprague-Dawley, rat, plasma, po, Control group: oral probe cocktail only (10 mg/kg; tolbutamide 1 mg/kg), rats, n = 6
[3] = rats, poziotinib 5 mg/kg 7 days vs probes only
[4] = male, Sprague-Dawley, rat, in vivo, po, 10 mg/kg
[5] = male, Sprague-Dawley, rat, in vivo, po, 10 mg/kg, Tmax
[6] = male, Sprague-Dawley, rat, plasma, po, 10 mg/kg
[7] = male, Sprague-Dawley, rat, plasma, po, 10 mg/kg, Control group: oral probe cocktail only (10 mg/kg; tolbutamide 1 mg/kg), rats, n = 6
[8] = male, Sprague-Dawley, rat, plasma, po, 10 mg/kg, Treated group: oral probe cocktail (10 mg/kg; tolbutamide 1 mg/kg) after 7 days oral poziotinib 5 mg/kg, rats, n = 6
[9] = male, Sprague-Dawley, rat, plasma, po, 10 mg/kg, Cmax, Treated group: oral probe cocktail (10 mg/kg; tolbutamide 1 mg/kg) after 7 days oral poziotinib 5 mg/kg, rats, n = 6
[10] = male, Sprague-Dawley, rat, in vivo, po, Control group: oral probe cocktail only (10 mg/kg; tolbutamide 1 mg/kg), rats, n = 6
[11] = male, Sprague-Dawley, rat, in vivo, po, Treated group: oral probe cocktail (10 mg/kg; tolbutamide 1 mg/kg) after 7 days oral poziotinib 5 mg/kg, rats, n = 6

CCCCNC(=O)NS(=O)(=O)c1ccc(C)cc1 [Tolbutamide]
Tmax [1]: 2.67 ± 0.52 h | t1/2z [1]: 9.10 ± 4.20 h | Tmax (male, Sprague-Dawley, rat, in vivo, po, Tmax): 2.33 ± 0.52 h | half-life [1]: 12.7 ± 4.84 h | CL/F [2]: 0.333 mL/min/kg | Cmax (male, Sprague-Dawley, rat, plasma, po, Cmax, Control group: oral probe cocktail only (10 mg/kg; tolbutamide 1 mg/kg), rats, n = 6): 3700 ng/mL | Cmax (male, Sprague-Dawley, rat, plasma, po, Cmax, Treated group: oral probe cocktail (10 mg/kg; tolbutamide 1 mg/kg) after 7 days oral poziotinib 5 mg/kg, rats, n = 6): 4920 ng/mL | Vd/F [2]: 0.27 ± 0.04 L/kg | Vd/F (male, Sprague-Dawley, rat, plasma, po, Treated group: oral probe cocktail (10 mg/kg; tolbutamide 1 mg/kg) after 7 days oral poziotinib 5 mg/kg, rats, n = 6): 0.25 ± 0.1 L/kg | AUC (0–∞) increasing by, treated vs control group [3]: 51.60% | CLz/F lower than control group by [3]: 50% | AUC(0–t) of treated group as fold of control group value (rats): 1.43 fold | CLz/F of treated group as fold of control group value (rats): 0.5 fold

CC(NC(C)(C)C)C(=O)c1cccc(Cl)c1 (stereo not shown) [Bupropion]
AUC(0-t) [4]: 405 ± 87.3 ng·h/mL | AUC(0–∞) [4]: 421.07 ± 94.21 ng·h/mL | MRT(0–t) [4]: 2.37 ± 0.53 h | MRT(0–∞) [4]: 2.87 ± 1.15 h | Tmax [4]: 0.46 ± 0.29 h | t1/2z [4]: 2.51 ± 1.34 h | AUC(0-inf) [4]: 613 ± 130 ng·h/mL | MRT last [4]: 3.33 ± 0.84 h | MRT inf [4]: 4.34 ± 1.58 h | Tmax [5]: 0.75 ± 0.27 h | half-life [4]: 3.35 ± 1.21 h | AUC(0-t) [6]: 565 ± 92.5 ng·h/mL | CL/F [7]: 412 mL/min/kg | CL/F [8]: 281 mL/min/kg | Cmax (male, Sprague-Dawley, rat, plasma, po, 10 mg/kg, Cmax, Control group: oral probe cocktail only (10 mg/kg; tolbutamide 1 mg/kg), rats, n = 6): 170 ± 60.1 ng/mL | Cmax [9]: 173 ± 60.8 ng/mL | Vd/F [7]: 85.4 ± 37.7 L/kg | Vd/F [8]: 81.8 ± 38.3 L/kg | AUC(0–t) fold higher in treated than control group [3]: 1.39 fold | AUC(0–∞) fold higher in treated than control group [3]: 1.46 fold | CLz/F fold lower in treated than control group [3]: 1.47 fold | MRT(0–t) fold higher in treated than control group [3]: 1.41 fold | Tmax fold higher in treated than control group [3]: 1.63 fold | Vz/F fold lower in treated than control group [3]: 1.04 fold | AUC(0–t) of treated group as fold of control group value (rats): 1.40 fold | CLz/F of treated group as fold of control group value (rats): 0.68 fold

CCOc1ccc(NC(C)=O)cc1 [Phenacetin]
Cmax (Control group: oral probe cocktail only (10 mg/kg; tolbutamide 1 mg/kg), rats, n = 6): 2,869.22 ± 783.32 µg/L | AUC(0-t) [4]: 6320 ng·h/mL | MRT(0–t) [4]: 1.46 ± 0.22 h | Tmax [4]: 0.75 ± 0.27 h | t1/2z [4]: 0.55 ± 0.15 h | MRT last [4]: 1.41 ± 0.13 h | MRT inf [4]: 1.46 ± 0.15 h | Tmax [5]: 0.54 ± 0.25 h | half-life [4]: 0.8 ± 0.12 h | AUC(0-t) [6]: 2770 ng·h/mL | CL/F [7]: 30.7 mL/min/kg | CL/F [8]: 66.5 mL/min/kg | Cmax [9]: 1490 ng/mL | Vd/F [7]: 1.57 ± 0.9 L/kg | Vd/F [8]: 4.77 ± 2.26 L/kg | AUC (0–t) reduced by, treated vs control group [3]: 56.08% | AUC (0–∞) reduced by, treated vs control group [3]: 55.81% | CLz/F increased by, treated vs control group [3]: 116.85% | Cmax reduced by, treated vs control group [3]: 48.06% | Vz/F increased by, treated vs control group [3]: 203.82% | t1/2 increased by, treated vs control group [3]: 45.45%

COc1ccc2c(c1)[C@]13CCCC[C@@H]1[C@H](C2)N(C)CC3 [Dextromethorphan]
AUC(0-t) (male, Sprague-Dawley, rat, in vivo, po, AUC(0–t), Control group: oral probe cocktail only (10 mg/kg; tolbutamide 1 mg/kg), rats, n = 6): 575 ± 77.7 ng·h/mL | AUC(0-t) (male, Sprague-Dawley, rat, in vivo, po, AUC(0–t), Treated group: oral probe cocktail (10 mg/kg; tolbutamide 1 mg/kg) after 7 days oral poziotinib 5 mg/kg, rats, n = 6): 640 ± 197 ng·h/mL | AUC(0-inf) [10]: 586 ± 79.3 ng·h/mL | AUC(0-inf) [11]: 722 ± 231 ng·h/mL | CL/F [10]: 289 mL/min/kg | CL/F [11]: 250 mL/min/kg | Cmax (male, Sprague-Dawley, rat, in vivo, po, Cmax, Control group: oral probe cocktail only (10 mg/kg; tolbutamide 1 mg/kg), rats, n = 6): 152 ± 57.7 ng/mL | Cmax (male, Sprague-Dawley, rat, in vivo, po, Cmax, Treated group: oral probe cocktail (10 mg/kg; tolbutamide 1 mg/kg) after 7 days oral poziotinib 5 mg/kg, rats, n = 6): 153 ± 42.3 ng/mL | MRT last [10]: 3.12 ± 0.37 h | MRT last [11]: 3.54 ± 0.51 h | MRT inf [10]: 3.35 ± 0.47 h | MRT inf [11]: 5.19 ± 2.68 h | Tmax (male, Sprague-Dawley, rat, in vivo, po, Tmax, Control group: oral probe cocktail only (10 mg/kg; tolbutamide 1 mg/kg), rats, n = 6): 1.04 ± 0.56 h | Tmax (male, Sprague-Dawley, rat, in vivo, po, Tmax, Treated group: oral probe cocktail (10 mg/kg; tolbutamide 1 mg/kg) after 7 days oral poziotinib 5 mg/kg, rats, n = 6): 1.58 ± 0.92 h | Vd/F [10]: 49 ± 10.7 L/kg | Vd/F [11]: 75.5 ± 33.1 L/kg | half-life [10]: 1.98 ± 0.43 h | half-life [11]: 3.72 ± 2.09 h | difference in main pharmacokinetic parameters between treated and control group (in words) [3]: no significant differences
